The numbers were not newly measured in US20160168384A1, “PORPHYRINOID COMPONENTS, METHOD AND APPARATUS FOR WATER PHOTODISINFECTION” (NIMARTECH LIMITED, priority 2013, published 2016), which cites them from elsewhere.

The data set concerns faecal coliforms. The note with it: wastewater; micromolar porphyrin; visible light or sunlight, about 4 hours.

Structures are written as SMILES.

For the compound `C[n+]1ccc(-c2c3nc(c(-c4cc[n+](C)cc4)c4ccc([nH]4)c(-c4cc[n+](C)cc4)c4nc(c(-c5cc[n+](C)cc5)c5ccc2[nH]5)C=C4)C=C3)cc1` [Sample C1, meso-tetra(N,N,N,N-methyl-pyridyl)porphine], the “decrease of coliform counts” value was “at least 5 logs”.
